Results as given in US9051317B2, “Azaindoles as respiratory syncytial virus antiviral agents” (JANSSEN SCIENCES IRELAND UC, priority 2010, dated 2015).

How the values were obtained:
[1] = Cytotoxicity in HeLa cells, ATP content (ATPlite kit); format: cell-based; settings: human, Table 1, three days incubation, read-out: Toxicity CC50
Description: (§1) Black 96-well clear-bottom microtiter plates (Corning, Amsterdam, The Netherlands) were filled in duplicate using a customized robot system with serial 4-fold dilutions of compound in a final volume of 50 μl culture medium [RPMI medium without phenol red, 10% FBS, 0.04% gentamycin (50 mg/mL) and 0.5% DMSO]. Then, 100 μl of a HeLa cell suspension (5×10^4 cells/mL) in culture medium was added to each well followed by the addition of 50 μl rgRSV224 (MOI=0.02) virus in culture medium using a multidrop dispenser (Thermo Scientific, Erembodegem, Belgium). rgRSV224 virus is an engineered virus that includes an additional GFP gene (Hallak et al, 2000) and was in-licensed from the NIH (Bethesda, Md., USA). Medium, virus- and mock-infected controls were included in each test. Cells were incubated at 37° C. in a 5% CO2 atmosphere. Three days post-virus exposure, viral replication was quantified by measuring GFP expression in the cells by a MSM laser microscope (Tibotec, Beerse, Belgium). The EC50 was defined as the 50% inhibitory concentration for GFP expression. In parallel, compounds were incubated for three days in a set of white 96-well microtitier plates (Corning) and the cytotoxicity of compounds in HeLa cells was determined by measuring the ATP content of the cells using the ATPlite kit (PerkinElmer, Zaventem, Belgium) according to the manufacturer's instructions. The CC50 was defined as the 50% concentration for cytotoxicity.

rgRSV224 virus = experiment: microbe, parasite or virus in culture; format: cell-based, respiratory syncytial virus (RSV); settings: human respiratory syncytial virus, HeLa, 72 h, read-out: WT activity EC50
Description: as §1

CC(C)CCn1c(Cn2c(=O)n(C3CC3)c3ccncc32)cc2cccnc21 [Compound P10, 1-Cyclopropyl-3-{[1-(3-methylbutyl)-1H-pyrrolo[2,3-b]pyridin-2-yl]methyl}-1,3-dihydro-2H-imidazo[4,5-c]pyridin-2-one]
CC50 at 3 days [1]: > 98.4 µM
EC50 (rgRSV224 virus): > 98.4 µM
